In US6960574B2, “Antagonists of RF-amide neuropeptides” (University of Florida, priority 2002, dated 2005):
Square brackets hold non-standard residues; d marks the D form. Peptide text beside a SMILES is read from it. * marks the point of attachment. ξ: configuration not given here. Dansyl = CN(C)c1cccc2c(S(=O)(=O)*)cccc12; ξL = CC(C)CC(N)C(=O)O

System: receptor labeled by the radioiodinated analogue of 1 (4, [125I]-YLFQPQRF-NH2); neuropeptide FF receptor
Experiment: Competitive radioligand binding against 4 ([125I]Y8F-amide)
Settings: mixture-based positional scanning; difference from averaged radioligand displacement of whole library (0); about 80 a.u. = 10-fold change in Ki
Excerpt: Additionally, three-dimensional (3-D) molecular models of the known smaller-size neuropeptide FF antagonists 3 and 3a were constructed and their low-energy conformations were obtained in the AMBER force-field [Weiner, et al., J. Comput. Chem. 1986, 7, […].] by molecular dynamics calculations involving simulated annealing. A semi-empirical quantum chemical method with the PM3 parameterization [Stewart, J. Comput. Chem. 1989, 10, 209-220.] was used for the final geometry optimization. […] At least one of the rings in domain B is aromatic. No similarity between 3 and 3a outside these domains were apparent; therefore, the simultaneous presence of A and B domains in the structure of neuropeptide FF (1) antagonists is critical to the invention. Apparently, structural subunits (domain C) outside domains A and B should function in a cooperative manner in directing the pharmacophores into proper geometric positions when improved binding to the cognate receptor is to be obtained, which is associated with the improvement of the desired pharmacological effect. An approach involving mixture-based synthetic combinatorial libraries and positional scanning [(a) Houghten, et al., J. Med Chem. 1999, 42, 3743-3778.] was adopted in the search for preferred structural motifs in domain C that assist in achieving this objective in this invention. To allow for the use of 3 as a reference in this process, the guadinino group (A) was incorporated as part of an L-2-amino-5-{[amino(imino)methyl]amino}pentanoyl (arginyl, R, Arg) residue and 5-dimethylamino-1-naphthalenesulphonyl (dansyl) was chosen to form B (However, it must be emphasized that both R and dansyl are replaceable with moieties that bestow A and B domain attributes described in the invention).
Upon screening for residues to replace the glutamine of 3, serine (S) was the only building block in this position that increased the displacement of 4 in the radioligand-binding assay. Therefore, motifs present in dansyl-Gly-Ser-Arg-NH2, dansyl-Gly-Gln-Arg-NH2, dansyl-Gln-Ser-Arg-NH2, and dansyl-Gln-Gln-Arg-NH2 were chosen based on their affinity to the cognate receptor for further consideration as primary templates when designing the domain C of the compounds described in the invention herein. […]

Row | Structure (SMILES) | Relative Binding Index (RBI)
1 | C[C@H](NS(=O)(=O)c1cccc2c(N(C)C)cccc12)C(=O)N1CCC[C@H]1C(=O)N[C@@H](CCCNC(=N)N)C(N)=O [Dansyl-APR-amide] (Dansyl-Ala-Pro-Arg-NH2) | 15 a.u.
2 | C[C@H](NS(=O)(=O)c1cccc2c(N(C)C)cccc12)C(=O)N[C@@H](CCCNC(=N)N)C(=O)N[C@@H](CCCNC(=N)N)C(N)=O [Dansyl-ARR-amide] (Dansyl-Ala-Arg-Arg-NH2) | 11 a.u.
3 | C[C@H](NS(=O)(=O)c1cccc2c(N(C)C)cccc12)C(=O)N[C@@H](Cc1c[nH]c2ccccc12)C(=O)N[C@@H](CCCNC(=N)N)C(N)=O [Dansyl-AWR-amide] (Dansyl-Ala-Trp-Arg-NH2) | 21 a.u.
4 | C[C@H](NS(=O)(=O)c1cccc2c(N(C)C)cccc12)C(=O)N[C@@H](Cc1ccc(O)cc1)C(=O)N[C@@H](CCCNC(=N)N)C(N)=O [Dansyl-AYR-amide] (Dansyl-Ala-Tyr-Arg-NH2) | 11 a.u.
5 | CN(C)c1cccc2c(S(=O)(=O)N[C@@H](CC(=O)O)C(=O)N[C@@H](CC(=O)O)C(=O)N[C@@H](CCCNC(=N)N)C(N)=O)cccc12 [Dansyl-DDR-amide] (Dansyl-Asp-Asp-Arg-NH2) | −24 a.u.
6 | CN(C)c1cccc2c(S(=O)(=O)N[C@@H](CC(=O)O)C(=O)N[C@@H](CCC(=O)O)C(=O)N[C@@H](CCCNC(=N)N)C(N)=O)cccc12 [Dansyl-DER-amide] (Dansyl-Asp-Glu-Arg-NH2) | −5 a.u.
7 | CN(C)c1cccc2c(S(=O)(=O)N[C@@H](CC(=O)O)C(=O)N[C@@H](Cc3ccccc3)C(=O)N[C@@H](CCCNC(=N)N)C(N)=O)cccc12 [Dansyl-DFR-amide] (Dansyl-Asp-Phe-Arg-NH2) | −7 a.u.
8 | CN(C)c1cccc2c(S(=O)(=O)N[C@@H](CC(=O)O)C(=O)NCC(=O)N[C@@H](CCCNC(=N)N)C(N)=O)cccc12 [Dansyl-DGR-amide] (Dansyl-Asp-Gly-Arg-NH2) | 0 a.u.
9 | CN(C)c1cccc2c(S(=O)(=O)N[C@@H](CC(=O)O)C(=O)N[C@@H](Cc3c[nH]cn3)C(=O)N[C@@H](CCCNC(=N)N)C(N)=O)cccc12 [Dansyl-DHR-amide] (Dansyl-Asp-His-Arg-NH2) | −11 a.u.
10 | CC[C@H](C)[C@H](NC(=O)[C@H](CC(=O)O)NS(=O)(=O)c1cccc2c(N(C)C)cccc12)C(=O)N[C@@H](CCCNC(=N)N)C(N)=O [Dansyl-DIR-amide] (Dansyl-Asp-Ile-Arg-NH2) | 1 a.u.
11 | CN(C)c1cccc2c(S(=O)(=O)N[C@@H](CC(=O)O)C(=O)N[C@@H](CCCCN)C(=O)N[C@@H](CCCNC(=N)N)C(N)=O)cccc12 [Dansyl-DKR-amide] (Dansyl-Asp-Lys-Arg-NH2) | −8 a.u.
12 | CSCC[C@H](NC(=O)[C@H](CC(=O)O)NS(=O)(=O)c1cccc2c(N(C)C)cccc12)C(=O)N[C@@H](CCCNC(=N)N)C(N)=O [Dansyl-DMR-amide] (Dansyl-Asp-Met-Arg-NH2) | −6 a.u.
13 | CN(C)c1cccc2c(S(=O)(=O)N[C@@H](CC(=O)O)C(=O)N[C@@H](CC(N)=O)C(=O)N[C@@H](CCCNC(=N)N)C(N)=O)cccc12 [Dansyl-DNR-amide] (Dansyl-Asp-Asn-Arg-NH2) | −4 a.u.

The next lines start with the values.

Row | Relative Binding Index (RBI) | Structure (SMILES)
14 | −37 a.u. | C[C@H](NC(=O)[C@H](C)NS(=O)(=O)c1cccc2c(N(C)C)cccc12)C(=O)N[C@@H](CCCNC(=N)N)C(N)=O [Dansyl-AAR-amide] (Dansyl-Ala-Ala-Arg-NH2)
15 | −6 a.u. | C[C@H](NS(=O)(=O)c1cccc2c(N(C)C)cccc12)C(=O)N[C@@H](CC(=O)O)C(=O)N[C@@H](CCCNC(=N)N)C(N)=O [Dansyl-ADR-amide] (Dansyl-Ala-Asp-Arg-NH2)
16 | 12 a.u. | C[C@H](NS(=O)(=O)c1cccc2c(N(C)C)cccc12)C(=O)N[C@@H](CCC(=O)O)C(=O)N[C@@H](CCCNC(=N)N)C(N)=O [Dansyl-AER-amide] (Dansyl-Ala-Glu-Arg-NH2)
17 | 11 a.u. | C[C@H](NS(=O)(=O)c1cccc2c(N(C)C)cccc12)C(=O)N[C@@H](Cc1ccccc1)C(=O)N[C@@H](CCCNC(=N)N)C(N)=O [Dansyl-AFR-amide] (Dansyl-Ala-Phe-Arg-NH2)
18 | 18 a.u. | C[C@H](NS(=O)(=O)c1cccc2c(N(C)C)cccc12)C(=O)NCC(=O)N[C@@H](CCCNC(=N)N)C(N)=O [Dansyl-AGR-amide] (Dansyl-Ala-Gly-Arg-NH2)
19 | 6 a.u. | C[C@H](NS(=O)(=O)c1cccc2c(N(C)C)cccc12)C(=O)N[C@@H](Cc1c[nH]cn1)C(=O)N[C@@H](CCCNC(=N)N)C(N)=O [Dansyl-AHR-amide] (Dansyl-Ala-His-Arg-NH2)
20 | 19 a.u. | CC[C@H](C)[C@H](NC(=O)[C@H](C)NS(=O)(=O)c1cccc2c(N(C)C)cccc12)C(=O)N[C@@H](CCCNC(=N)N)C(N)=O [Dansyl-AIR-amide] (Dansyl-Ala-Ile-Arg-NH2)
21 | 10 a.u. | C[C@H](NS(=O)(=O)c1cccc2c(N(C)C)cccc12)C(=O)N[C@@H](CCCCN)C(=O)N[C@@H](CCCNC(=N)N)C(N)=O [Dansyl-AKR-amide] (Dansyl-Ala-Lys-Arg-NH2)
22 | 4 a.u. | CC(C)CC(NC(=O)[C@H](C)NS(=O)(=O)c1cccc2c(N(C)C)cccc12)C(=O)N[C@@H](CCCNC(=N)N)C(N)=O (stereo partly drawn) [Dansyl-ALR-amide] (Dansyl-Ala-[ξL]-Arg-NH2)
23 | 12 a.u. | CSCC[C@H](NC(=O)[C@H](C)NS(=O)(=O)c1cccc2c(N(C)C)cccc12)C(=O)N[C@@H](CCCNC(=N)N)C(N)=O [Dansyl-AMR-amide] (Dansyl-Ala-Met-Arg-NH2)
24 | 13 a.u. | C[C@H](NS(=O)(=O)c1cccc2c(N(C)C)cccc12)C(=O)N[C@@H](CC(N)=O)C(=O)N[C@@H](CCCNC(=N)N)C(N)=O [Dansyl-ANR-amide] (Dansyl-Ala-Asn-Arg-NH2)
25 | 26 a.u. | C[C@H](NS(=O)(=O)c1cccc2c(N(C)C)cccc12)C(=O)N[C@@H](CCC(N)=O)C(=O)N[C@@H](CCCNC(=N)N)C(N)=O [Dansyl-AQR-amide] (Dansyl-Ala-Gln-Arg-NH2)
26 | 33 a.u. | C[C@H](NS(=O)(=O)c1cccc2c(N(C)C)cccc12)C(=O)N[C@@H](CO)C(=O)N[C@@H](CCCNC(=N)N)C(N)=O [Dansyl-ASR-amide] (Dansyl-Ala-Ser-Arg-NH2)
27 | 18 a.u. | C[C@H](NS(=O)(=O)c1cccc2c(N(C)C)cccc12)C(=O)N[C@H](C(=O)N[C@@H](CCCNC(=N)N)C(N)=O)[C@@H](C)O [Dansyl-ATR-amide] (Dansyl-Ala-Thr-Arg-NH2)
28 | 7 a.u. | CC(C)[C@H](NC(=O)[C@H](C)NS(=O)(=O)c1cccc2c(N(C)C)cccc12)C(=O)N[C@@H](CCCNC(=N)N)C(N)=O [Dansyl-AVR-amide] (Dansyl-Ala-Val-Arg-NH2)
29 | −55 a.u. | C[C@H](NC(=O)[C@H](CC(=O)O)NS(=O)(=O)c1cccc2c(N(C)C)cccc12)C(=O)N[C@@H](CCCNC(=N)N)C(N)=O [Dansyl-DAR-amide] (Dansyl-Asp-Ala-Arg-NH2)
30 | −14 a.u. | CC(C)C[C@H](NC(=O)[C@H](CC(=O)O)NS(=O)(=O)c1cccc2c(N(C)C)cccc12)C(=O)N[C@@H](CCCNC(=N)N)C(N)=O [Dansyl-DLR-amide] (Dansyl-Asp-Leu-Arg-NH2)
